Target: T1, AKT1-E17K (Homo sapiens, UniProt P31749, E17K)
T1 construct: host or cells: HEK-293 (ATCC CRL-1573)
Test: NanoBRET Target Engagement (TE) Assay
Format: cell-based
From the text: The NanoBRET™ Target Engagement (TE) Intracellular Kinase Assays are based on the NanoBRET™ System (Promega Corporation), an energy transfer technique designed to measure molecular proximity in living cells. The NanoBRET™ TE Assays measure the apparent affinity of test compounds by competitive displacement of the NanoBRET™ tracer compound, which is a cell permeable molecule engineered to be reversibly bound to a NanoLuc® luciferase-kinase fusion expressed in cells. For compound screening, when a test compound binds to the selected kinase, the BRET signal is attenuated. […] All cells were evaluated for viability prior to transfection and optimization of the transfection was done prior to experimentation. […] Following transfection, cells were washed and resuspended in Opti-MEM. NanoBRET assays were performed in white, 384-well plates (Corning) at a density of […]. All example compounds were prepared as concentrated stock solutions in DMSO (Sigma-Aldrich). Compounds are dissolved in DMSO to make 10 mM stock solution. […] A Labcyte ECHO 550 compound dispenser was used to facilitate compound transfer directly to cells. Cells were equilibrated for 2 hr with energy transfer probes and example compound prior to BRET measurements. […] For target engagement analysis, the energy transfer probes were added to the cells at concentrations optimized for the target in question (AKT E17K). Following compound incubation, NanoBRET NanoGlo Substrate (Promega Cat #N157D) and Extracellular Nanoluc Inhibitor (Promega Cat #N235C) was added according to the manufacturer's recommended protocol, and luminescence was measured on Envision Reader (Perkin Elmer) Multimode Luminometer equipped with 450 nmBPfilter (donor) and 600 nmLPfilter (acceptor), using 0.5 s integration time. Milli-BRET units (mBU) are calculated by multiplying the raw BRET values by 1000. Apparent tracer affinity values (EC50) were determined using the sigmoidal dose-response (variable slope). Competitive displacement data were then plotted and data were fit to determine the EC50 value for each example compound.

T1 sequence (P31749 whole entry E17K): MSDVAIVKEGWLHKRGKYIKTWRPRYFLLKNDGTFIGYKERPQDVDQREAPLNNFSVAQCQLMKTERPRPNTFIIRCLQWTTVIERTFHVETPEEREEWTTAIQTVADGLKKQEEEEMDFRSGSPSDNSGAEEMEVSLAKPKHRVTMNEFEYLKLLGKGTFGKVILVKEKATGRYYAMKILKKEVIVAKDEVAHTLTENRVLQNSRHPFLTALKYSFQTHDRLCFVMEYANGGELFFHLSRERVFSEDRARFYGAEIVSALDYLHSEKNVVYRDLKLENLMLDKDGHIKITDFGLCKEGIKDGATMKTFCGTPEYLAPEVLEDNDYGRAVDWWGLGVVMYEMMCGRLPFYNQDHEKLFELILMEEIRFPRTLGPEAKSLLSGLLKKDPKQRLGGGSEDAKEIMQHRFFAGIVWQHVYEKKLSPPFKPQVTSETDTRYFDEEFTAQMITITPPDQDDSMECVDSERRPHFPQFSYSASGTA

Row | SMILES | IC50 [µM]
1 | Nc1ncccc1-c1nc2ccc(-c3ccccc3)nc2n1-c1ccc(CN2CCC3(CCCN(c4ccc(C=O)c(O)c4)C3)C2)cc1 (stereo not drawn) [Example 88, 4-(2-(4-(2-(2-Aminopyridin-3-yl)-5-phenyl-3H-imidazo[4,5-b]pyridin-3-yl)benzyl)-2,7-diazaspiro[4.5]decan-7-yl)-2-hydroxybenzaldehyde] | 0.06 to 0.6
2 | Nc1ncccc1-c1nc2ccc(-c3ccccc3)nc2n1-c1ccc(CN2CC3(CCN(c4ccc(C=O)c(O)c4)C3)C2)cc1 [Example 94, 4-(2-(4-(2-(2-Aminopyridin-3-yl)-5-phenyl-3H-imidazo[4,5-b]pyridin-3-yl)benzyl)-2,6-diazaspiro[3.4]octan-6-yl)-2-hydroxybenzaldehyde] | 0.015 to 0.06
3 | Nc1ncccc1-c1nc2ccc(-c3ccccc3)nc2n1-c1ccc(CN2CC3CCC(C2)N3C(=O)c2ccc(O)c(C=O)c2)cc1 [Example 110, 5-(3-(4-(2-(2-Aminopyridin-3-yl)-5-phenyl-3H-imidazo[4,5-b]pyridin-3-yl)benzyl)-3,8-diazabicyclo[3.2.1]octane-8-carbonyl)-2-hydroxybenzaldehyde] | > 0.6
4 | Nc1ncccc1-c1nc2ccc(-c3ccc(Cl)cc3)nc2n1-c1ccc(CN2CCN(c3ccc(C=O)c(O)c3)CC2)cc1 [Example 146, 4-(4-(4-(2-(2-aminopyridin-3-yl)-5-(4-chlorophenyl)-3H-imidazo[4,5-b]pyridin-3-yl)benzyl)piperazin-1-yl)-2-hydroxybenzaldehyde] | > 0.6
5 | Nc1ncccc1-c1nc2ccc(-c3ccccc3)nc2n1-c1ccc(CN2CCCN(C(=O)c3ccc(C=O)c(O)c3)CC2)cc1 [Example 72, 4-(4-(4-(2-(2-Aminopyridin-3-yl)-5-phenyl-3H-imidazo[4,5-b]pyridin-3-yl)benzyl)-1,4-diazepane-1-carbonyl)-2-hydroxybenzaldehyde] | 0.015 to 0.06
6 | Nc1ncccc1-c1nc2ccc(-c3ccccc3)nc2n1-c1ccc(COc2ccc(O)c(C=O)c2)cc1 [Example 139, 5-((4-(2-(2-Aminopyridin-3-yl)-5-phenyl-3H-imidazo[4,5-b]pyridin-3-yl)benzyl)oxy)-2-hydroxybenzaldehyde] | > 0.6
7 | Nc1ncccc1-c1nc2ccc(-c3ccccc3)nc2n1-c1ccc(CN2CC3(C2)CN(c2ccc(C=O)c(O)c2)C3)cc1 [Example 89, 4-(6-(4-(2-(2-aminopyridin-3-yl)-5-phenyl-3H-imidazo[4,5-b]pyridin-3-yl)benzyl)-2,6-diazaspiro[3.3]heptan-2-yl)-2-hydroxybenzaldehyde] | 0.015 to 0.06
8 | N#Cc1ccc(-c2ccc3nc(-c4cccnc4N)n(-c4ccc(CN5CCN(C(=O)c6ccc(C=O)c(O)c6)CC5)cc4)c3n2)cc1 [Example 39, 4-(2-(2-Aminopyridin-3-yl)-3-(4-((4-(4-formyl-3-hydroxybenzoyl)piperazin-1-yl)methyl)phenyl)-3H-imidazo[4,5-b]pyridin-5-yl)benzonitrile] | 0.06 to 0.6
9 | Nc1ncccc1-c1nc2ccc(-c3ccccc3F)nc2n1-c1ccc(CN2CCN(C(=O)c3ccc(O)c(C=O)c3)CC2)cc1 [Example 141, 5-(4-(4-(2-(2-Aminopyridin-3-yl)-5-(2-fluorophenyl)-3H-imidazo[4,5-b]pyridin-3-yl)benzyl)piperazine-1-carbonyl)-2-hydroxybenzaldehyde] | 0.015 to 0.06
10 | Nc1ncccc1-c1nc2ccc(-c3cccc(=O)[nH]3)nc2n1-c1ccc(CN2CCN(C(=O)c3ccc(C=O)c(O)c3)CC2)cc1 [Example 46, 4-(4-(4-(2-(2-Aminopyridin-3-yl)-5-(6-oxo-1,6-dihydropyridin-2-yl)-3H-imidazo[4,5-b]pyridin-3-yl)benzyl)piperazine-1-carbonyl)-2-hydroxybenzaldehyde] | > 0.6
11 | Nc1ncccc1-c1nc2ccc(-c3ccc(Cl)cc3)nc2n1-c1ccc(CN2CCN(c3ccc(O)c(C=O)c3)CC2)cc1 [Example 149, 5-(4-(4-(2-(2-aminopyridin-3-yl)-5-(4-chlorophenyl)-3H-imidazo[4,5-b]pyridin-3-yl)benzyl)piperazin-1-yl)-2-hydroxybenzaldehyde] | > 0.6
12 | Nc1ncccc1-c1nc2ccc(-c3ccc[nH]c3=O)nc2n1-c1ccc(CN2CCN(C(=O)c3ccc(O)c(C=O)c3)CC2)cc1 [Example 14, 5-(4-(4-(2-(2-Aminopyridin-3-yl)-5-(2-oxo-1,2-dihydropyridin-3-yl)-3H-imidazo[4,5-b]pyridin-3-yl)benzyl)piperazine-1-carbonyl)-2-hydroxybenzaldehyde] | > 0.6
13 | Nc1ncccc1-c1nc2ccc(-c3ccccc3)nc2n1-c1ccc(CN2CCCN(C(=O)c3ccc(O)c(C=O)c3)CC2)cc1 [Example 119, 5-(4-(4-(2-(2-Aminopyridin-3-yl)-5-phenyl-3H-imidazo[4,5-b]pyridin-3-yl)benzyl)-1,4-diazepane-1-carbonyl)-2-hydroxybenzaldehyde] | 0.015 to 0.06
14 | Nc1ncccc1-c1nc2ccc(-c3ccccc3)nc2n1-c1ccc(CN2C[C@H]3C[C@@H]2CN3C(=O)c2ccc(C=O)c(O)c2)cc1 [Example 56, 4-((1R,4R)-5-(4-(2-(2-Aminopyridin-3-yl)-5-phenyl-3H-imidazo[4,5-b]pyridin-3-yl)benzyl)-2,5-diazabicyclo[2.2.1]heptane-2-carbonyl)-2-hydroxybenzaldehyde] | 0.06 to 0.6
15 | Nc1ncccc1-c1nc2cccnc2n1-c1ccc(CNC(=O)c2ccc(C=O)c(O)c2)cc1 [Example 3, N-(4-(2-(2-Aminopyridin-3-yl)-3H-imidazo[4,5-b]pyridin-3-yl)benzyl)-4-formyl-3-hydroxybenzamide] | > 0.6
16 | N#Cc1cccc(-c2ccc3nc(-c4cccnc4N)n(-c4ccc(CN5CCN(C(=O)c6ccc(O)c(C=O)c6)CC5)cc4)c3n2)c1 [Example 34, 3-(2-(2-Aminopyridin-3-yl)-3-(4-((4-(3-formyl-4-hydroxybenzoyl)piperazin-1-yl)methyl)phenyl)-3H-imidazo[4,5-b]pyridin-5-yl)benzonitrile] | 0.06 to 0.6
17 | CN(Cc1ccc(-n2c(-c3cccnc3N)nc3ccc(-c4ccccc4)nc32)cc1)c1ccc(C=O)c(O)c1 [Example 17, 4-((4-(2-(2-Aminopyridin-3-yl)-5-phenyl-3H-imidazo[4,5-b]pyridin-3-yl)benzyl)(methyl)amino)-2-hydroxybenzaldehyde] | 0.06 to 0.6
18 | Nc1ncccc1-c1nc2ccc(-c3ccccc3)nc2n1-c1ccc(CN2CCC[C@@H](NC(=O)c3ccc(C=O)c(O)c3)C2)cc1 [Example 63, (R)—N-(1-(4-(2-(2-Aminopyridin-3-yl)-5-phenyl-3H-imidazo[4,5-b]pyridin-3-yl)benzyl)piperidin-3-yl)-4-formyl-3-hydroxybenzamide] | 0.06 to 0.6
19 | Nc1ncccc1-c1nc2ccc(-c3ccccc3)nc2n1-c1ccc(CN2CCN(c3ccc(C=O)c(O)c3F)CC2)cc1 [Example 26, 4-(4-(4-(2-(2-Aminopyridin-3-yl)-5-phenyl-3H-imidazo[4,5-b]pyridin-3-yl)benzyl)piperazin-1-yl)-3-fluoro-2-hydroxybenzaldehyde] | 0.015 to 0.06
20 | Nc1ncccc1-c1nc2ccc(-c3ccccc3)nc2n1-c1ccc(CN2CCC3(CC2)CN(C(=O)c2ccc(C=O)c(O)c2)C3)cc1 [Example 71, 4-(7-(4-(2-(2-Aminopyridin-3-yl)-5-phenyl-3H-imidazo[4,5-b]pyridin-3-yl)benzyl)-2,7-diazaspiro[3.5]nonane-2-carbonyl)-2-hydroxybenzaldehyde] | > 0.6
21 | Nc1ncccc1-c1nc2ccc(-c3ccccc3)nc2n1-c1ccc(CN2CC3(CCN(C(=O)c4ccc(O)c(C=O)c4)CC3)C2)cc1 [Example 95, 5-(2-(4-(2-(2-Aminopyridin-3-yl)-5-phenyl-3H-imidazo[4,5-b]pyridin-3-yl)benzyl)-2,7-diazaspiro[3.5]nonane-7-carbonyl)-2-hydroxybenzaldehyde] | 0.06 to 0.6
22 | Nc1ncccc1-c1nc2ccc(N3CCOCC3)nc2n1-c1ccc(CN2CCC(NC(=O)c3ccc(O)c(C=O)c3)CC2)cc1 [Example 52, N-(1-(4-(2-(2-Aminopyridin-3-yl)-5-morpholino-3H-imidazo[4,5-b]pyridin-3-yl)benzyl)piperidin-4-yl)-3-formyl-4-hydroxybenzamide] | 0.015 to 0.06
23 | Nc1ncccc1-c1nc2ccc(-c3ccccc3)nc2n1-c1ccc(CN2C[C@H]3C[C@@H]2CN3c2ccc(C=O)c(O)c2)cc1 [Example 124, 4-((1R,4R)-5-(4-(2-(2-Aminopyridin-3-yl)-5-phenyl-3H-imidazo[4,5-b]pyridin-3-yl)benzyl)-2,5-diazabicyclo[2.2.1]heptan-2-yl)-2-hydroxybenzaldehyde] | 0.015 to 0.06
24 | Nc1ncccc1-c1nc2ccc(-c3ccccc3)nc2n1-c1ccc(CN2C3CCC2CN(C(=O)c2ccc(O)c(C=O)c2)C3)cc1 [Example 112, 5-(8-(4-(2-(2-Aminopyridin-3-yl)-5-phenyl-3H-imidazo[4,5-b]pyridin-3-yl)benzyl)-3,8-diazabicyclo[3.2.1]octane-3-carbonyl)-2-hydroxybenzaldehyde] | > 0.6

— patent publication US20260365647A1, “AKT1 MODULATORS” (Alterome Therapeutics, Inc., priority 2022, published 2026)
